Results from US7795255B2, “Rigidified compounds for modulating heparanase activity” (InSight Biopharmaceuticals Ltd., priority 2005, dated 2010).

Key:
[1] = biological target: T1, recombinant human pro-heparanase (H60) (Homo sapiens, UniProt Q9Y251); test: Pro-heparanase (H60) activation in a cell-based assay; conditions: inhibition of pro-heparanase activation in CHO cells; NI = no inhibition
T1 construct: Heparanase maturation involves the removal of the signal peptide, transforming the 65 kDa pre-pro-heparanase into a 60 kDa pro-heparanase; made in house
T1 sequence (Q9Y251 36-543): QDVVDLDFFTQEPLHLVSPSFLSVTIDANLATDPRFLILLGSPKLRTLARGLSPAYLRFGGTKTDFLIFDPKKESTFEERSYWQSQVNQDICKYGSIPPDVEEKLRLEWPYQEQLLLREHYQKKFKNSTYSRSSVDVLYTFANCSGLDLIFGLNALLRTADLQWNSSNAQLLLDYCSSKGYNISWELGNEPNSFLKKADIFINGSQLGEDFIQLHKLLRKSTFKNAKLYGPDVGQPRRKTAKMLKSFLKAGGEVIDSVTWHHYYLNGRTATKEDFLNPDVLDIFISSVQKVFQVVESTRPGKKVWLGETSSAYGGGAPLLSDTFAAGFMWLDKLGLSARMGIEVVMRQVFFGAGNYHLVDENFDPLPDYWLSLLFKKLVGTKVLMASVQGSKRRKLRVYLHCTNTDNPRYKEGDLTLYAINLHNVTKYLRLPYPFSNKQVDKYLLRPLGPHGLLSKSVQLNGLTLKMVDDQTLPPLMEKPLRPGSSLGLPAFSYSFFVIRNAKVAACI
Protocol: Pro-heparanase (H60) activation in a cell-based assay: Chinese hamster ovary (CHO) cells were grown in complete F12 medium supplemented with 10% fetal calf serum (FCS). […] The plates were incubated for 24 hours in a 37° C. humidified incubator with 5% CO2. […] The plates were further incubated for additional 4 hours. The pro-heparanase was allowed to internalize by the cells and further processed to generate the active 53 kDa heparanase. At the end of the incubation, the cells were lysed by three consecutive cycles of freezing and thawing in a −80° C. freezer and a 37° C. shaker.
The rigidified compounds described herein were tested for inhibition of pro-heparanase activation in the cell-based assay described above.

heparanase (H53) = biological target: T2, heparanase (H53) (Homo sapiens, UniProt Q9Y251); test: Heparanase (H53) assay (DMB assay); format: biochemical; conditions: for dual activity: inhibition of pro-heparanase activation (H60) and of heparanase activity (H53): compounds with an acidic group; for IC50: inhibition of heparanase activity, DMB assay, NI = no inhibition
T2 construct: The 45 kDa major subunit and the 8 kDa small subunit hetero-complex to form the 53 kDa active form of heparanase
T2 sequence (Q9Y251 36-109 limits assumed): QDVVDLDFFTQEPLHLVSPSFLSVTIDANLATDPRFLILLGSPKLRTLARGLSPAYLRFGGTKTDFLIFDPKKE
T2 sequence (Q9Y251 158-543 limits assumed): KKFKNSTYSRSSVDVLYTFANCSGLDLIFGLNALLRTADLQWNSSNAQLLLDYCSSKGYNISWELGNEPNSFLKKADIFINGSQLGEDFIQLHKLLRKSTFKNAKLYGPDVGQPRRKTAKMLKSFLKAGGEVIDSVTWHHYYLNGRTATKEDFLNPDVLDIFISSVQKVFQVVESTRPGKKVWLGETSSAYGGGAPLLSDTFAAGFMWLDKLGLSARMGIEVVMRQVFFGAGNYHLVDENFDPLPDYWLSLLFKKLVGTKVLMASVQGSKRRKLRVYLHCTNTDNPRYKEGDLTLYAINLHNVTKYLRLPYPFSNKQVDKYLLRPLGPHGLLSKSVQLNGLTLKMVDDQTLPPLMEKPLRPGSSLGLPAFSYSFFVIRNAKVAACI
Protocol: Heparanase (H53) assay: The rigidified compounds described herein were tested for inhibition of heparanase activity in the DMB assay described in U.S. Pat. No. 6,190,875. IC50 was calculated from inhibition curves of all active compounds.

[2] = biological target: T3, vascular endothelial growth factor (VEGF) (Homo sapiens, UniProt P15692); test: ELISA for determination of binding of VEGF to heparin; conditions: for IC50: inhibition of VEGF binding to heparin, NI = no inhibition; for inhibition of VEGF binding to heparin: inhibition towards both growth factors
T3 sequence (P15692 27-191 isoform P15692-4): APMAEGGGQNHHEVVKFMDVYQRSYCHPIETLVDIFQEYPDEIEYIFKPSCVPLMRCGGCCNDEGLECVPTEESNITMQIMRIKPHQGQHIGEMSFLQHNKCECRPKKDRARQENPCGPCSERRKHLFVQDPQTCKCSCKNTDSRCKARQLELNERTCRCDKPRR
Protocol: Enzyme-linked immunosorbent assay (ELISA) for determination of binding of vascular endothelial growth factor (VEGF) to heparin: 96-well microplates were coated for 2 hours. at 23-25° C. with 5 μg/ml heparin-albumin (Rimon Biotech) and blocked with 1% bovine serum albumin (BSA) in phosphate buffer (PBS) with 0.05% Tween and 0.01% thimerosal for 2 hours. VEGF was added to the plates at a concentration of 10 ng/ml and the plates were thereafter incubated for 45 minutes at 23-25° C. The amount of VEGF bound to heparin was detected using anti-VEGF monoclonal antibody (Sigma Cat. No. V4758) at a concentration of 0.26 μg/ml and secondary antibodies Sheep anti-mouse IgG linked to horseradish peroxidase (1:2000) using 3,3′,5,5′-tetramethylbenzidine (TMB, Pierce Cat. No. 34021) as a substrate for peroxidase. The plates were read at 450 nm with a reference wavelength of 630 nm using a VERSAmax plate reader. […] Percent inhibition was calculated as compared with a control pre-incubated with a solution of 1% DMSO and the results are presented in Table 3 below.

β-FGF = β-FGF (Homo sapiens, UniProt P09038); test: ELISA for determination of binding of β-FGF to heparin; conditions: for IC50: inhibition of β-FGF binding to heparin, NI = no inhibition; for inhibition of β-FGF binding to heparin: inhibition towards both growth factors
β-FGF, sequence (P09038 143-288): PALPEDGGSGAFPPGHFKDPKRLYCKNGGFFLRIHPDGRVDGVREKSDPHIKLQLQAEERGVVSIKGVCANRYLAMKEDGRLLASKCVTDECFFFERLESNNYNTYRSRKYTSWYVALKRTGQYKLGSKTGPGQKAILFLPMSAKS
Protocol: ELISA for determination of binding of β-FGF to heparin: 96-well microplates were coated for 2 hours at 23-25° C. with 5 μg/ml heparin-albumin (Rimon Biotech) and blocked with 1% BSA in PBS, with 0.05% Tween, and 0.01% thimerosal for 2 hours. β-FGF was added to the plates at a concentration of 10 ng/ml and plates were incubated for 45 minutes at 23-25° C. The amount of β-FGF bound to heparin was detected using anti-FGF monoclonal antibody (Sigma Cat. No. F6162) at a concentration of 2.5 ng/ml and secondary antibodies Sheep anti-mouse IgG linked to horseradish peroxidase (1:3000) TMB (Pierce Cat. No. 34021) was used as a substrate for peroxidase. The plates were read at 450 nm with a reference wavelength of 630 nm using a VERSAmax plate reader.

SMILES	IC50 [1]	dual activity: inhibition of pro-heparanase activation (H60) and of heparanase activity (H53) (heparanase (H53))	IC50 (heparanase (H53))	IC50 [2]	IC50 (β-FGF)	inhibition of VEGF binding to heparin [2]	inhibition of β-FGF binding to heparin (β-FGF)
O=C(O)CCCN1C(=O)c2cc3oc(-c4ccc(Cl)cc4)cc3n2C1=S [Compound 5, 4-[2-(4-chloro-phenyl)-6-oxo-4-thioxo-6H-1-oxa-3b,5-diaza-cyclopenta[a]pentalen-5-yl]-butyric acid]	1 µM	dual activity	11.8 µM	6 µM	2.1 µM		
CC(C)(CC(=O)NCC(=O)O)CN1C(=O)c2cc3oc(-c4ccc(Cl)cc4)cc3n2C1=S [Compound 18, {4-[2-(4-Chloro-phenyl)-6-oxo-4-thioxo-6H-1-oxa-3b,5-diaza-cyclopenta[a]pentalen-5-yl]-3,3-dimethyl-butyrylamino}-acetic acid]	0.46 µM			2 µM	1.4 µM		
CC(C)(CC(=O)NCC(=O)OC(C)(C)C)CN1C(=O)c2cc3oc(-c4ccc(Cl)cc4)cc3n2C1=S [Compound 19, {4-[2-(4-Chloro-phenyl)-6-oxo-4-thioxo-6H-1-oxa-3b,5-diaza-cyclopenta[a]pentalen-5-yl]-3,3-dimethyl-butyrylamino}-acetic acid tert-butyl ester]	0.42 µM			0.51 µM	0.5 µM	sub-micromolar	sub-micromolar
COC(=O)CN(C)C(=O)CC(C)(C)CN1C(=O)c2cc3oc(-c4ccc(Cl)cc4)cc3n2C1=S [Compound 20, ({4-[2-(4-Chloro-phenyl)-6-oxo-4-thioxo-6H-1-oxa-3b,5-diaza-cyclopenta[a]pentalen-5-yl]-3,3-dimethyl-butyryl}-methyl-amino)-acetic acid methyl ester]	0.32 µM			0.42 µM	0.35 µM	sub-micromolar	sub-micromolar
CN(CC(=O)O)C(=O)CC(C)(C)CN1C(=O)c2cc3oc(-c4ccc(Cl)cc4)cc3n2C1=S [Compound 21, ({4-[2-(4-Chloro-phenyl)-6-oxo-4-thioxo-6H-1-oxa-3b,5-diaza-cyclopenta[a]pentalen-5-yl]-3,3-dimethyl-butyryl}-methyl-amino)-acetic acid]	1 µM	dual activity	66.2 µM	7.3 µM	6.5 µM		
CC(C)(CC(=O)N1CCC[C@@H]1C(=O)O)CN1C(=O)c2cc3oc(-c4ccc(Cl)cc4)cc3n2C1=S [Compound 23, 1-{4-[2-(4-Chloro-phenyl)-6-oxo-4-thioxo-6H-1-oxa-3b,5-diaza-cyclopenta[a]pentalen-5-yl]-3,3-dimethyl-butyryl}-pyrrolidine-2-carboxylic acid]	0.82 µM	dual activity		9.3 µM	7.9 µM		
CCN(CC)C(=O)CC1(CN2C(=O)c3cc4oc(-c5ccc(Cl)cc5)cc4n3C2=S)CCCCC1 [Compound 24, 2-{1-[2-(4-Chloro-phenyl)-6-oxo-4-thioxo-6H-1-oxa-3b,5-diaza-cyclopenta[a]pentalen-5-ylmethyl]-cyclohexyl}-N,N-diethyl-acetamide]	1.5 µM			0.09 µM	0.15 µM	sub-micromolar	sub-micromolar
CCOC(=O)CCCN1C(=O)c2cc3oc(-c4cccc(C(F)(F)F)c4)cc3n2C1=S [Compound 25, ethyl 4-[6-oxo-4-thioxo-2-(3-trifluoromethyl-phenyl)-6H-1-oxa-3b,5-diaza-cyclopenta[a]pentalen-5-yl]-butyric acid ethyl ester]	2.7 µM			0.14 µM	0.12 µM		
O=C(O)CCCN1C(=O)c2cc3oc(-c4cccc(C(F)(F)F)c4)cc3n2C1=S [Compound 26]	0.78 µM		10.2 µM	4.8 µM	1.7 µM		
COCCCN1C(=O)c2cc3oc(-c4ccc(Cl)cc4)cc3n2C1=S [Compound 28, 2-(4-Chloro-phenyl)-5-(3-methoxy-propyl)-4-thioxo-4,5-dihydro-1-oxa-3b,5-diaza-cyclopenta[a]pentalen-6-one]	6.6 µM			0.17 µM	0.02 µM	sub-micromolar	sub-micromolar
Cc1c(N2C(=O)c3cc4oc(-c5ccc(Cl)cc5)cc4n3C2=S)c(=O)n(-c2ccccc2)n1C [Compound 29, 2-(4-chloro-phenyl)-5-(1,5-dimethyl-3-oxo-2-phenyl-2,3-dihydro-1H-pyrazol-4-yl)-4-thioxo-4,5-dihydro-1-oxa-3b,5-diaza-cyclopenta[a]pentalen-6-one]	0.37 µM			0.48 µM	0.81 µM	sub-micromolar	sub-micromolar
CCOC(=O)CCCN1C(=O)c2cc3sc(-c4ccc([N+](=O)[O-])cc4)cc3n2C1=S [Compound 31, 4-[2-(4-nitro-phenyl)-6-oxo-4-thioxo-6H-1-thia-3b,5-diaza-cyclopenta[a]pentalen-5-yl]-butyric acid ethyl ester]	0.56 µM		74 µM	0.07 µM	0.28 µM	sub-micromolar	sub-micromolar
O=C(O)CCCN1C(=O)c2cc3sc(-c4ccc([N+](=O)[O-])cc4)cc3n2C1=S [Compound 32, 4-[2-(4-Nitro-phenyl)-6-oxo-4-thioxo-6H-1-thia-3b,5-diaza-cyclopenta[a]pentalen-5-yl]-butyric acid]	0.7 µM		27 µM				
